Each block holds one compound with its values, some of them ahead of it. Where a SMILES comes first, the peptide text is derived from it. The star is where a group is joined. CHN2 = [N-]=[N+]=C*
Tests used:
Dipeptidyl peptidase 1 [1] = molecular target: T1, Dipeptidyl peptidase 1 (Homo sapiens, UniProt P53634); test: Inhibition of human Cathepsin C using Z-Arg-Arg-AM as substrate at 3 microM relative to control
Dipeptidyl peptidase 1 [2] = molecular target: T1, Dipeptidyl peptidase 1; test: Inhibition of human Cathepsin C using Gly-Phe-AMC as substrate assessed as kobs/[I]
Dipeptidyl peptidase 1 [3] = molecular target: T1, Dipeptidyl peptidase 1; test: Inhibition of human Cathepsin C using Gly- L -Phe-p-nitroanilide.HCl as substrate
Dipeptidyl peptidase 1 [4] = molecular target: T1, Dipeptidyl peptidase 1; test: Inhibition of human Cathepsin C using Ala-4-[ 125 I]Phe-DMK as substrate preincubated for 30 mins followed by substrate addition measured after 6 to 24 hrs
Dipeptidyl peptidase 1 [5] = molecular target: T1, Dipeptidyl peptidase 1; test: Inhibition of human Cathepsin C using Gly-Phe-paranitroanilide as substrate incubated for 12 mins
Dipeptidyl peptidase 1 [6] = molecular target: T1, Dipeptidyl peptidase 1; test: Inhibition of Cathepsin C (unknown origin)
Mus musculus = test: Inhibition of Cathepsin C in mouse spleen measured at 5 mg/kg ip, relative to control; type: organism-based

T1 sequence (P53634 25-134 limits assumed): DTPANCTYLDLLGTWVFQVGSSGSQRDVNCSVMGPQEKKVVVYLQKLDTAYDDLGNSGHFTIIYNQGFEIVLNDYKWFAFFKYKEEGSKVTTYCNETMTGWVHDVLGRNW
T1 sequence (P53634 231-394 limits assumed): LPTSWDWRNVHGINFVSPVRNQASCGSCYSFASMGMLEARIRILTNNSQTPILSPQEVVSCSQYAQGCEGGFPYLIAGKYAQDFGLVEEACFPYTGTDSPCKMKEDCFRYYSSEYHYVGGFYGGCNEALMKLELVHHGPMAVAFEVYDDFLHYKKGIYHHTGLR
T1 sequence (P53634 395-463 limits assumed): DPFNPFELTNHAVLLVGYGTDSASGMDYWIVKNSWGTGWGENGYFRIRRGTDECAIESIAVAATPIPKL

IC50 (Dipeptidyl peptidase 1 [1]): 4900 nM
Ratio (Dipeptidyl peptidase 1 [2]): 2900 M⁻¹ s⁻¹
SMILES: C[C@@H](O)[C@H](N)C(=O)N[C@@H](/C=C/S(C)(=O)=O)CCC(=O)O

IC50 (Dipeptidyl peptidase 1 [3]): 39000 nM
SMILES: CC(C)CC(NC(=O)CN)P(=O)(O)CCC(=O)O (stereo unspecified)

IC50 (Dipeptidyl peptidase 1 [4]): 50 nM
SMILES: N#[N+][CH-]C(=O)[C@H](Cc1ccccc1)NC(=O)CN

ID50 (Dipeptidyl peptidase 1 [1]): 100 nM
Ratio (Dipeptidyl peptidase 1 [2]): 2 10^6/M/s
SMILES: C[C@H](N)C(=O)N[C@H](/C=C/S(=O)(=O)c1ccccc1)CCc1ccccc1

IC50 (Dipeptidyl peptidase 1 [6]): 1 nM
SMILES: CC[C@@H](/C=C/C(=O)N1CCc2ccccc21)NC(=O)C1(N)CCOCC1

The next lines start with the compound.

SMILES: CC[C@H](N)C(=O)N[C@]1(C#N)C[C@@H]1c1ccc(-c2ccc(S(=O)(=O)N3CCN(C)CC3)cc2)cc1
IC50 (Dipeptidyl peptidase 1 [5]): 15 nM

SMILES: [N-]=[N+]=CC(=O)[C@H](Cc1ccccc1)NC(=O)CN (H-Gly-Phe-CHN2)
inhibition (Dipeptidyl peptidase 1 [1]): > 90%
inhibition (Mus musculus): > 90%

SMILES: C=CC(=O)Nc1cc2c(Nc3ccc(F)c(Cl)c3)ncnc2cc1OCCCN1CCOCC1 [CANERTINIB]
IC50 (Dipeptidyl peptidase 1 [6]): 120 nM
